{"source": "the NIST ThermoML archive (doi:10.1016/j.jct.2010.08.016)", "key": {"[1]": {"experiment": "xn = mol fraction of the nth substance listed", "conditions": "101 kPa, Liquid; for mass density: Vibrating tube method; for electrical conductivity: Alternating current cell with electrodes"}, "[2]": {"experiment": "refractive index (Na D-line) (dimensionless); xn = mol fraction of the nth substance listed", "conditions": "101 kPa, Liquid, Standard Abbe refractometry"}}, "note": "± gives the expanded uncertainty stated by the source.", "data": [{"smiles": "NC(CO)(CO)CO", "note": "[2-amino-2-(hydroxymethyl)-1,3-propanediol] + O", "values": [{"measurement": "mass density", "setting": "[1]; 343.15 K, x1 = 0.01", "value": "998.9 ± 0.8", "unit": "kg/m3"}, {"measurement": "mass density", "setting": "[1]; 343.15 K, x1 = 0.02", "value": "1013.2 ± 0.8", "unit": "kg/m3"}, {"measurement": "mass density", "setting": "[1]; 343.15 K, x1 = 0.03", "value": "1027 ± 0.8", "unit": "kg/m3"}, {"measurement": "mass density", "setting": "[1]; 343.15 K, x1 = 0.04", "value": "1033.9 ± 0.8", "unit": "kg/m3"}, {"measurement": "mass density", "setting": "[1]; 343.15 K, x1 = 0.05", "value": "1050.2 ± 0.8", "unit": "kg/m3"}, {"measurement": "mass density", "setting": "[1]; 343.15 K, x1 = 0.06", "value": "1055.9 ± 0.8", "unit": "kg/m3"}, {"measurement": "mass density", "setting": "[1]; 343.15 K, x1 = 0.07", "value": "1065.6 ± 0.8", "unit": "kg/m3"}, {"measurement": "electrical conductivity", "setting": "[1]; 353.15 K, x1 = 0.01", "value": "0.0423 ± 0.00085", "unit": "S/m"}, {"measurement": "electrical conductivity", "setting": "[1]; 353.15 K, x1 = 0.02", "value": "0.0514 ± 0.001", "unit": "S/m"}, {"measurement": "electrical conductivity", "setting": "[1]; 353.15 K, x1 = 0.03", "value": "0.0555 ± 0.0011", "unit": "S/m"}, {"measurement": "electrical conductivity", "setting": "[1]; 353.15 K, x1 = 0.04", "value": "0.0579 ± 0.0012", "unit": "S/m"}, {"measurement": "electrical conductivity", "setting": "[1]; 353.15 K, x1 = 0.05", "value": "0.0619 ± 0.0012", "unit": "S/m"}, {"measurement": "electrical conductivity", "setting": "[1]; 353.15 K, x1 = 0.06", "value": "0.0619 ± 0.0012", "unit": "S/m"}, {"measurement": "electrical conductivity", "setting": "[1]; 353.15 K, x1 = 0.07", "value": "0.0567 ± 0.0011", "unit": "S/m"}, {"measurement": "mass density", "setting": "[1]; 353.15 K, x1 = 0.01", "value": "989.9 ± 0.8", "unit": "kg/m3"}, {"measurement": "mass density", "setting": "[1]; 353.15 K, x1 = 0.02", "value": "1004.9 ± 0.8", "unit": "kg/m3"}, {"measurement": "mass density", "setting": "[1]; 353.15 K, x1 = 0.03", "value": "1020.8 ± 0.8", "unit": "kg/m3"}, {"measurement": "mass density", "setting": "[1]; 353.15 K, x1 = 0.04", "value": "1027.6 ± 0.8", "unit": "kg/m3"}, {"measurement": "mass density", "setting": "[1]; 353.15 K, x1 = 0.05", "value": "1044 ± 0.8", "unit": "kg/m3"}, {"measurement": "mass density", "setting": "[1]; 353.15 K, x1 = 0.06", "value": "1049.5 ± 0.8", "unit": "kg/m3"}, {"measurement": "mass density", "setting": "[1]; 353.15 K, x1 = 0.07", "value": "1059.2 ± 0.8", "unit": "kg/m3"}, {"measurement": "refractive index", "setting": "[2]; 293.15 K, x1 = 0.01", "value": "1.34226 ± 0.00031"}, {"measurement": "refractive index", "setting": "[2]; 293.15 K, x1 = 0.02", "value": "1.35089 ± 0.00031"}, {"measurement": "refractive index", "setting": "[2]; 293.15 K, x1 = 0.03", "value": "1.35884 ± 0.00031"}, {"measurement": "refractive index", "setting": "[2]; 293.15 K, x1 = 0.04", "value": "1.37118 ± 0.00031"}, {"measurement": "refractive index", "setting": "[2]; 293.15 K, x1 = 0.05", "value": "1.37635 ± 0.00031"}, {"measurement": "refractive index", "setting": "[2]; 293.15 K, x1 = 0.06", "value": "1.3797 ± 0.00031"}, {"measurement": "refractive index", "setting": "[2]; 293.15 K, x1 = 0.07", "value": "1.38587 ± 0.00031"}, {"measurement": "refractive index", "setting": "[2]; 298.15 K, x1 = 0.01", "value": "1.34173 ± 0.00031"}, {"measurement": "refractive index", "setting": "[2]; 298.15 K, x1 = 0.02", "value": "1.35029 ± 0.00031"}, {"measurement": "refractive index", "setting": "[2]; 298.15 K, x1 = 0.03", "value": "1.35819 ± 0.00031"}, {"measurement": "refractive index", "setting": "[2]; 298.15 K, x1 = 0.04", "value": "1.37048 ± 0.00031"}, {"measurement": "refractive index", "setting": "[2]; 298.15 K, x1 = 0.05", "value": "1.37565 ± 0.00031"}, {"measurement": "refractive index", "setting": "[2]; 298.15 K, x1 = 0.06", "value": "1.37896 ± 0.00031"}, {"measurement": "refractive index", "setting": "[2]; 298.15 K, x1 = 0.07", "value": "1.38509 ± 0.00031"}, {"measurement": "refractive index", "setting": "[2]; 303.15 K, x1 = 0.01", "value": "1.34111 ± 0.00031"}, {"measurement": "refractive index", "setting": "[2]; 303.15 K, x1 = 0.02", "value": "1.34961 ± 0.00031"}, {"measurement": "refractive index", "setting": "[2]; 303.15 K, x1 = 0.03", "value": "1.35746 ± 0.00031"}, {"measurement": "refractive index", "setting": "[2]; 303.15 K, x1 = 0.04", "value": "1.3697 ± 0.00031"}, {"measurement": "refractive index", "setting": "[2]; 303.15 K, x1 = 0.05", "value": "1.37485 ± 0.00031"}, {"measurement": "refractive index", "setting": "[2]; 303.15 K, x1 = 0.06", "value": "1.37816 ± 0.00031"}, {"measurement": "refractive index", "setting": "[2]; 303.15 K, x1 = 0.07", "value": "1.38425 ± 0.00031"}, {"measurement": "refractive index", "setting": "[2]; 308.15 K, x1 = 0.01", "value": "1.34042 ± 0.00031"}, {"measurement": "refractive index", "setting": "[2]; 308.15 K, x1 = 0.02", "value": "1.34889 ± 0.00031"}, {"measurement": "refractive index", "setting": "[2]; 308.15 K, x1 = 0.03", "value": "1.35667 ± 0.00031"}, {"measurement": "refractive index", "setting": "[2]; 308.15 K, x1 = 0.04", "value": "1.36888 ± 0.00031"}, {"measurement": "refractive index", "setting": "[2]; 308.15 K, x1 = 0.05", "value": "1.37406 ± 0.00031"}, {"measurement": "refractive index", "setting": "[2]; 308.15 K, x1 = 0.06", "value": "1.37728 ± 0.00031"}, {"measurement": "refractive index", "setting": "[2]; 308.15 K, x1 = 0.07", "value": "1.38334 ± 0.00031"}, {"measurement": "refractive index", "setting": "[2]; 313.15 K, x1 = 0.01", "value": "1.33972 ± 0.00031"}, {"measurement": "refractive index", "setting": "[2]; 313.15 K, x1 = 0.02", "value": "1.34821 ± 0.00031"}, {"measurement": "refractive index", "setting": "[2]; 313.15 K, x1 = 0.03", "value": "1.35596 ± 0.00031"}, {"measurement": "refractive index", "setting": "[2]; 313.15 K, x1 = 0.04", "value": "1.36815 ± 0.00031"}, {"measurement": "refractive index", "setting": "[2]; 313.15 K, x1 = 0.05", "value": "1.37347 ± 0.00031"}, {"measurement": "refractive index", "setting": "[2]; 313.15 K, x1 = 0.06", "value": "1.37673 ± 0.00031"}, {"measurement": "refractive index", "setting": "[2]; 313.15 K, x1 = 0.07", "value": "1.38271 ± 0.00031"}, {"measurement": "refractive index", "setting": "[2]; 318.15 K, x1 = 0.01", "value": "1.33899 ± 0.00031"}, {"measurement": "refractive index", "setting": "[2]; 318.15 K, x1 = 0.02", "value": "1.34742 ± 0.00031"}, {"measurement": "refractive index", "setting": "[2]; 318.15 K, x1 = 0.03", "value": "1.3552 ± 0.00031"}, {"measurement": "refractive index", "setting": "[2]; 318.15 K, x1 = 0.04", "value": "1.36739 ± 0.00031"}, {"measurement": "refractive index", "setting": "[2]; 318.15 K, x1 = 0.05", "value": "1.37247 ± 0.00031"}, {"measurement": "refractive index", "setting": "[2]; 318.15 K, x1 = 0.06", "value": "1.37581 ± 0.00031"}, {"measurement": "refractive index", "setting": "[2]; 318.15 K, x1 = 0.07", "value": "1.38182 ± 0.00031"}, {"measurement": "refractive index", "setting": "[2]; 323.15 K, x1 = 0.01", "value": "1.3381 ± 0.00031"}, {"measurement": "refractive index", "setting": "[2]; 323.15 K, x1 = 0.02", "value": "1.34668 ± 0.00031"}, {"measurement": "refractive index", "setting": "[2]; 323.15 K, x1 = 0.03", "value": "1.35447 ± 0.00031"}, {"measurement": "refractive index", "setting": "[2]; 323.15 K, x1 = 0.04", "value": "1.36673 ± 0.00031"}, {"measurement": "refractive index", "setting": "[2]; 323.15 K, x1 = 0.05", "value": "1.37176 ± 0.00031"}, {"measurement": "refractive index", "setting": "[2]; 323.15 K, x1 = 0.06", "value": "1.37507 ± 0.00031"}, {"measurement": "refractive index", "setting": "[2]; 323.15 K, x1 = 0.07", "value": "1.38124 ± 0.00031"}, {"measurement": "refractive index", "setting": "[2]; 328.15 K, x1 = 0.01", "value": "1.33723 ± 0.00031"}, {"measurement": "refractive index", "setting": "[2]; 328.15 K, x1 = 0.02", "value": "1.34603 ± 0.00031"}, {"measurement": "refractive index", "setting": "[2]; 328.15 K, x1 = 0.03", "value": "1.35389 ± 0.00031"}, {"measurement": "refractive index", "setting": "[2]; 328.15 K, x1 = 0.04", "value": "1.36626 ± 0.00031"}, {"measurement": "refractive index", "setting": "[2]; 328.15 K, x1 = 0.05", "value": "1.37115 ± 0.00031"}, {"measurement": "refractive index", "setting": "[2]; 328.15 K, x1 = 0.06", "value": "1.37453 ± 0.00031"}, {"measurement": "refractive index", "setting": "[2]; 328.15 K, x1 = 0.07", "value": "1.38089 ± 0.00031"}]}]}
